Like-named read-outs stand apart in the source and are kept apart here.

The values that follow come from patent publication US20050209278A1, “Piperidinyl- and piperazinyl-sulfonylmethyl hydroxamic acids and their use as protease inhibitors” (priority 2002, published 2005).

The target in one assay is T1, MMP-13 (Homo sapiens, UniProt P45452).
T1 construct: made in house; host or cells: baculovirus / insect cells
Nature of the assay: In vitro MMP inhibition, Ki determination (fluorogenic substrate II). The assay is classed as biochemical. The conditions noted are these: read-out: MMP-13 Ki. An outline of the steps: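 Room-temperature, 1 h incubation of APMA-activated recombinant human MMP-13 with 4 μM quenched substrate II (cleaved at Gly-Leu) in pH 7.5 Tris/NaCl/CaCl2 buffer. Inhibition appears as a slowed rise in 330/420 nm fluorescence. Single low enzyme and substrate levels were used for Ki.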

For another assay, the target named is T2, MMP-14 (Homo sapiens, UniProt P50281).
T2 construct: The catalytic domain enzyme was expressed in E. coli inclusion bodies, solubilized in urea; made in house
The assay is described as above. The assay is classed as biochemical. The note with it: read-out: MMP-14 Ki. An outline of the steps:
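Apparent Ki was fitted with Morrison's equation from reaction rates at a single low enzyme level. Enzyme was APMA- or trypsin-activated refolded MMP-14 catalytic domain, buffered at pH 7.5 with 10 mM CaCl2.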

One may read the Ki as the equilibrium dissociation constant of an inhibitor or competing ligand from its target. Consider `CCCCOc1ccc(N2CCN(S(=O)(=O)C3(C(=O)NO)CCN(c4ccc(C(F)(F)F)cn4)CC3)CC2)cc1` [Example 257], for which the inhibitory constant (Ki) at MMP-13 (value outside parentheses) is 12.9 nM; at MMP-14 (value outside parentheses) it was > 10000 nM.
With `CCCCc1ccc(N2CCN(S(=O)(=O)C3(C(=O)NO)CCN(c4cccnc4)CC3)CC2)nc1` [Example 96], the Ki at MMP-13 (value not in parenthesis) stood at 0.44 nM; at MMP-14 (value not in parenthesis), 816 nM.
With `Cc1cc(N2CCN(S(=O)(=O)C3(C(=O)NO)CCOCC3)CC2)ccc1OC(C)C` [Example 299], the inhibitory constant (Ki) on MMP-13 (value outside parentheses) was 3.04 nM; at MMP-14 (value outside parentheses), > 10000 nM.
For `CCCCOc1ccc(N2CCN(S(=O)(=O)C3(C(=O)NO)CCN(C(N)=O)CC3)CC2)cc1` [Example 253], in that order: 0.357 nM and 1930 nM.
For the molecule `O=C(NO)C1(S(=O)(=O)N2CCN(c3ccc(-c4ccccc4)cc3)CC2)CCOCC1` [Example 76], the Ki on MMP-13 (value not in parenthesis) came to 0.4 nM; at MMP-14 (value not in parenthesis) it was 358 nM.
The corresponding values for `O=C(NO)C1(S(=O)(=O)N2CCN(c3ccc(C(F)(F)F)cn3)CC2)CCOCC1` [Example 94] are 0.82 nM and 221 nM.
The corresponding values for `COCCN1CCC(C(=O)NO)(S(=O)(=O)N2CCN(c3ccc(OCCCCF)cc3)CC2)CC1` [Example 88] are 0.18 nM and 2760 nM.
For the molecule `CCCCOc1ccc(N2CCN(S(=O)(=O)C3(C(=O)NO)CCN(c4ccc(Cl)cc4)CC3)CC2)cc1` [Example 251], the Ki on MMP-13 (value outside parentheses) was 12.9 nM; at MMP-14 (value outside parentheses), > 10000 nM.
With `CCCCOc1ccc(N2CCN(S(=O)(=O)C3(C(=O)NO)CCN(c4ccc(C)nn4)CC3)CC2)cc1` [Example 275], the results for the Ki on MMP-13 (value outside parentheses) and on MMP-14 (value outside parentheses) were 0.216 nM and 818 nM, respectively.
As for `O=C(NO)C1(S(=O)(=O)N2CCN(c3ccc(OCCCC(F)(F)F)cc3F)CC2)CCOCC1` [Example 81], the Ki at MMP-13 (value not in parenthesis) was 0.261 nM; on MMP-14 (value not in parenthesis), 2430 nM.
With `CCCCc1ccc(N2CCN(S(=O)(=O)C3(C(=O)NO)CCN(CCOC)CC3)CC2)nc1` [Example 270], the Ki on MMP-13 (value outside parentheses) came out at 0.339 nM; at MMP-14 (value outside parentheses) it was 1110 nM.
Turning to `CCCCc1ccc(N2CCN(S(=O)(=O)C3(C(=O)NO)CCOCC3)CC2)c(F)c1` [Example 91], the Ki at MMP-13 (value not in parenthesis) was 1.64 nM; on MMP-14 (value not in parenthesis), 1740 nM.
For `CCCCOc1ccc(N2CCN(S(=O)(=O)C3(C(=O)NO)CCN(Cc4cccnc4)CC3)CC2)cc1F` [Example 293], the inhibition constant Ki at MMP-13 (value outside parentheses) turned out to be 0.313 nM; on MMP-14 (value outside parentheses) it was 5440 nM.
For `CCCCOc1ccc(N2CCN(S(=O)(=O)C3(C(=O)NO)CCN(CCOC)CC3)CC2)c(F)c1` [Example 284], in that order: 0.12 nM and 2770 nM.
For `CCCCOc1ccc(N2CCN(S(=O)(=O)C3(C(=O)NO)CCN(c4ccc(Cl)nn4)CC3)CC2)cc1` [Example 281], in that order: 0.442 nM and 1630 nM.
With `COCCN1CCC(C(=O)NO)(S(=O)(=O)N2CCC(c3ccc(CCC(F)(F)F)cc3)CC2)CC1` [Example 309], the Ki came to 0.355 nM on MMP-13 (value outside parentheses) and 1440 nM on MMP-14 (value outside parentheses).
As for `O=C(NO)C1(S(=O)(=O)N2CCN(c3ccc(OCc4ccccc4)cn3)CC2)CCOCC1` [Example 74], the Ki worked out at 0.06 nM on MMP-13 (value not in parenthesis) and 454 nM at MMP-14 (value not in parenthesis).
The corresponding values for `O=C(NO)C1(S(=O)(=O)N2CCN(c3ccc(COCC(F)(F)F)cc3)CC2)CCOCC1` [Example 72] are 0.85 nM and 7570 nM.
Turning to `CCCCc1ccc(N2CCN(S(=O)(=O)C3(C(=O)NO)CCN(c4ncccn4)CC3)CC2)nc1` [Example 99], the inhibition constant Ki came out at 0.3 nM on MMP-13 (value not in parenthesis) and 225 nM at MMP-14 (value not in parenthesis).
Consider `CS(=O)(=O)c1ccc(N2CCN(S(=O)(=O)C3(C(=O)NO)CCOCC3)CC2)cc1` [Example 300], for which the inhibition constant Ki on MMP-13 (value outside parentheses) was 42.7 nM; on MMP-14 (value outside parentheses) it was > 10000 nM.
For `CCc1ccc(N2CCN(S(=O)(=O)C3(C(=O)NO)CCCCC3)CC2)nc1` [Example 263], in that order: 0.262 nM and 34 nM.
As for `CCCCc1ccc(C2CCN(S(=O)(=O)C3(C(=O)NO)CCN(CCOC)CC3)CC2)s1` [Example 55], the values for the inhibitory constant (Ki) at MMP-13 (value not in parenthesis) and on MMP-14 (value not in parenthesis) were 3.94 nM and 2450 nM, respectively.
With `CCCCOc1ccc(N2CCN(S(=O)(=O)C3(C(=O)NO)CCN(c4ccc(C)cc4)CC3)CC2)cc1` [Example 295], the Ki on MMP-13 (value outside parentheses) was determined as 9.13 nM; on MMP-14 (value outside parentheses) it was 8650 nM.
The corresponding values for `CCCCOc1ccc(N2CCN(S(=O)(=O)C3(C(=O)NO)CCN(c4ccccc4)CC3)CC2)cc1` [Example 264] are 0.048 nM and > 10000 nM.
In the case of `COCCN1CCC(C(=O)NO)(S(=O)(=O)N2CCN(c3ccc(Oc4ccccc4)cc3)CC2)CC1` [Example 287], the Ki worked out at 3.33 nM at MMP-13 (value outside parentheses) and 6940 nM on MMP-14 (value outside parentheses).
Turning to `CCCCOc1ccc(N2CCN(S(=O)(=O)C3(C(=O)NO)CCN(c4ccc(Cl)c(Cl)c4)CC3)CC2)cc1` [Example 250], the Ki was 18.4 nM on MMP-13 (value not in parenthesis) and > 10000 nM on MMP-14 (value not in parenthesis).
With `CCCCCc1ccc(N2CCN(S(=O)(=O)C3(C(=O)NO)CCN(c4ncccn4)CC3)CC2)nc1` [Example 95], the Ki on MMP-13 (value not in parenthesis) was found to be 0.68 nM; at MMP-14 (value not in parenthesis) it was 597 nM.
With `CCCCOc1ccc(N2CCN(S(=O)(=O)C3(C(=O)NO)CCN(C(=O)CO)CC3)CC2)cc1` [Example 271], the Ki was found to be 0.452 nM on MMP-13 (value outside parentheses) and 1460 nM at MMP-14 (value outside parentheses).
Consider `O=C(NO)C1(S(=O)(=O)N2CCN(c3ccc(CCC(F)(F)F)cc3)CC2)CCOCC1` [Example 77], for which the figures for the inhibition constant Ki on MMP-13 (value not in parenthesis) and at MMP-14 (value not in parenthesis) were 0.84 nM and 1180 nM, respectively.
The corresponding values for `O=C(NO)C1(S(=O)(=O)N2CCN(c3cccc(C(F)(F)F)c3)CC2)CCOCC1` [Example 82] are 7.49 nM and 1600 nM.
Consider `CC(C)COc1ccc(N2CCN(S(=O)(=O)C3(C(=O)NO)CCOCC3)CC2)cc1Cl` [Example 79], for which the Ki at MMP-13 (value not in parenthesis) is 6.62 nM; on MMP-14 (value not in parenthesis) it was 8820 nM.
For the molecule `CCCCOc1ccc(N2CCN(S(=O)(=O)C3(C(=O)NO)CCN(C(C)=O)CC3)CC2)cc1` [Example 282], the Ki stood at 0.27 nM on MMP-13 (value outside parentheses) and 1480 nM on MMP-14 (value outside parentheses).
For the molecule `CCCCOc1ccc(N2CCN(S(=O)(=O)C3(C(=O)NO)CCNCC3)CC2)cc1F` [Example 286], the inhibition constant (Ki) on MMP-13 (value outside parentheses) was 5.97 nM; at MMP-14 (value outside parentheses) it was > 10000 nM.
The corresponding values for `CCCCOc1ccc(N2CCN(S(=O)(=O)C3(C(=O)NO)CCN(Cc4ccccc4)CC3)CC2)cc1F` [Example 285] are 2.06 nM and > 10000 nM.
Regarding `COCCN1CCC(C(=O)NO)(S(=O)(=O)N2CCC(c3ncc(CC(C)C)s3)CC2)CC1` [Example 311], the Ki was 1.56 nM on MMP-13 (value outside parentheses) and > 10000 nM at MMP-14 (value outside parentheses).
In the case of `CCCCOc1ccc(N2CCN(S(=O)(=O)C3(C(=O)NO)CCN(C(=O)OCC(C)(C)C)CC3)CC2)cc1` [Example 97], the results for the inhibition constant (Ki) on MMP-13 (value not in parenthesis) and on MMP-14 (value not in parenthesis) were 21.9 nM and > 10000 nM, respectively.
For `O=C(NO)C1(S(=O)(=O)N2CCC(c3ccc(-c4ccc(F)cc4F)cn3)CC2)CCOCC1` [Example 308], the inhibitory constant (Ki) at MMP-13 (value outside parentheses) came to 4.26 nM; on MMP-14 (value outside parentheses), 1040 nM.
Consider `CCCCOc1ccc(N2CCN(S(=O)(=O)C3(C(=O)NO)CCN(C(C)(C)C)CC3)CC2)c(F)c1` [Example 84], for which the Ki is 1.91 nM on MMP-13 (value not in parenthesis) and > 10000 nM on MMP-14 (value not in parenthesis).
`CCCCOc1ccc(N2CCN(S(=O)(=O)C3(C(=O)NO)CCN(C(=O)CCCC)CC3)CC2)cc1` [Example 278]: the results for the inhibition constant Ki on MMP-13 (value outside parentheses) and at MMP-14 (value outside parentheses) were 0.49 nM and 5260 nM, respectively.
